# Test results: US20230357354A1, “CD38-BINDING CD31 PEPTIDES AND USES THEREOF” (ENCEFA, priority 2020, published 2023)
# Tested on: human Daudi cells
# Assay: not given
# Type: cell-based
# Conditions: glucose-deprived cells, 1 hour treatment (1 µM per figure legends; 10 µg/mL per method), 2-NBDG 500 µM 30 minutes
# Method: Human Daudi cells cultured in 75 cm^2 flask were centrifuged ( 300 g, 3 minutes), resuspended in warmed PBS supplemented with 10 % goat serum and seeded in 96-well microplate ( 100 µL, 2 × 10^6 cells/mL) in order to deprive cells from glucose. Cells were treated with test treatments (10 µg/mL) for 1 hour (37° C.). Cells were then incubated with 500 µM of the fluorescent and non-metabolizable glucose analog 2-NBDG ((2R,3R,4S,5R)-3,4,5,6-tetrahydroxy-2-[(7-nitro-2,1,3-benzoxadiazol-4-yl)amino]hexanal; Thermo Fischer) for 30 minutes at 37° C., and washed 4 times with PBS containing 10 % of goat serum. Images were acquired using a Zeiss microscope (20 X) and the relative fluorescence intensity of 30 cells was determined using Fiji.
# To determine the effect of test compounds on glucose uptake, we developed a cellular model based on the use of human Daudi cells, a cell line known to strongly express CD38.
# Human Daudi cells were plated in culture medium deprived of glucose and exposed to test treatments (peptides of Table 6) for 1 hour and then incubated with the non-metabolizable, fluorescent glucose 2-NBDG. After 30 minutes of incubation, cells were washed and imaged using a microscope. Fluorescence levels were determined using Fiji.
row,Substance,glucose uptake (2-NBDG fluorescence)
1,"FELIVFN (Scramble peptide) [SEQ ID NO: 285, scramble peptide containing the same amino acid residues as NFVILEF in a different order]",not able to increase glucose uptake
2,FVILEFP [SEQ ID NO: 292],failed to reproduce the effect of sCD31
3,HFVILEFP [SEQ ID NO: 304],impact the glucose uptake-increasing activity of the peptide
4,NDVILEFP [SEQ ID NO: 310],impact the glucose uptake-increasing activity of the peptide
5,NFVALEFP [SEQ ID NO: 296],"slightly decreased the activity of the peptide, although it remained overall active"
6,NFVDLEFP [SEQ ID NO: 315],impact the glucose uptake-increasing activity of the peptide
7,NFVFLEFP [SEQ ID NO: 311],still active
8,NFVHLEFP [SEQ ID NO: 314],impact the glucose uptake-increasing activity of the peptide
9,NFVIAEFP [SEQ ID NO: 297],"slightly decreased the activity of the peptide, although it remained overall active"
10,NFVIDEFP [SEQ ID NO: 319],impact the glucose uptake-increasing activity of the peptide
11,NFVIFEFP [SEQ ID NO: 317],"increased glucose uptake, even more efficiently than SEQ ID NO: 297"
12,NFVIHEFP [SEQ ID NO: 318],impact the glucose uptake-increasing activity of the peptide
13,NFVITEFP [SEQ ID NO: 316],impact the glucose uptake-increasing activity of the peptide
14,NFVQLEFP [SEQ ID NO: 313],still active
15,NFVTLEFP [SEQ ID NO: 312],still active
16,NHVILEFP [SEQ ID NO: 309],impact the glucose uptake-increasing activity of the peptide
17,NSMLIEFT [SEQ ID NO: 320],still able to increase glucose uptake
18,NSVILEFP [SEQ ID NO: 308],keep glucose uptake-increasing activity
19,NWVILEFP [SEQ ID NO: 306],still increase glucose uptake
20,NYVILEFP [SEQ ID NO: 305],still increase glucose uptake
21,QFVILEFP [SEQ ID NO: 301],still increase glucose uptake
22,SFVILEFP [SEQ ID NO: 302],"still increase glucose uptake, although to a lesser extent"
23,TFVILEFP [SEQ ID NO: 303],"still increase glucose uptake, although to a lesser extent"

# Same assay, conditions: parent SEQ ID NO: 6 (deletions) or SEQ ID NO: 8 (alanine scanning); 2-NBDG fluorescence
row,Substance,effect of the C-terminal deletion or alanine substitution (relative to the parent peptide) on glucose uptake
1,NFAILEFP [SEQ ID NO: 295],had no effect on glucose uptake
2,NFVILAFP [SEQ ID NO: 298],had no effect on glucose uptake
3,NFVILEAP [SEQ ID NO: 299],had no effect on glucose uptake
4,NFVILEFA [SEQ ID NO: 300],had no effect on glucose uptake

# Biological target: recombinant His-tagged CD38 (Homo sapiens, UniProt P28907)
# Assay: Pepscan-based ELISA of His-tagged CD38 on CD31 peptide arrays
# Type: binding
# Conditions: mimic type BET (β-turn mimic, mP2 CLIPS); sample with the highest signal
# From the text: Different sets of sCD31 peptides were synthesized according to the following designs. Note that actual order of peptides on mini-cards in some was randomized. • Set #1 • Mimic type: linear • Label: LIN15 • Linear peptides of 15 consecutive amino acid residues in length, derived from the target sequence of sCD31 with an offset of […]. • Set #2 • Mimic type: single loop (mP2 CLIPS) • Label: LOOP7 • Constrained peptides of 9 amino acid residues in length. On positions 2-8 are incorporated 7 consecutive amino acid residues derived from the target sequence of sCD31 with an offset of 1.3 residues. Cys residues were inserted on positions 1 and 9 and joined by mP2 CLIPS in order to create a loop mimic. Native Cys residues, if present, were replaced by Ser residues. • Set #3 • Mimic type: single loop, (mP2 CLIPS) • Label: LOOP15 • Constrained peptides of 17 amino acid residues in length. On positions 2-16 are incorporated 15 consecutive amino acid residues derived from the target sequence of sCD31 with an offset of […]. Cys residues were inserted on positions 1 and 17 and joined by mP2 CLIPS in order to create a loop mimic. Native Cys residues, if present, were replaced by Ser residues. • Set #4 • Mimic type: β-turn peptide mimics (mP2 CLIPS) • Label: BET • β-turn peptide mimics of 22 amino acid residues in length. On positions 2-21 are incorporated 20 consecutive amino acid residues derived from the target sequence of sCD31 with an offset of 1.3 residues. Residues on positions 11 and 12 are replaced by a Pro-Gly motif in order to induce the β-turn formation. Cys residues were inserted on positions 1 and 22 and joined by mP2 CLIPS in order to stabilize the mimic. Native Cys residues, if present, were replaced by Ser residues.
# To reconstruct epitopes of sCD31, a library of peptide-based peptide mimics was synthesized using Fmoc-based solid-phase peptide synthesis. An amino functionalized polypropylene support was obtained by grafting with a hydrophilic polymer formulation, followed by reaction with t-butyloxycarbonyl-hexamethylenediamine (BocHMDA) using dicyclohexylcarbodiimide (DCC) with N-hydroxybenzotriazole (HOBt) and subsequent cleavage of the Boc-groups using trifluoroacetic acid (TFA).
# Standard Fmoc-peptide synthesis was used to synthesize peptides on the amino-functionalized solid support by custom modified JANUS liquid handling stations (Perkin Elmer).
# Synthesis of structural mimics was done using CLIPS technology. CLIPS technology allows to structure peptides into single loops, double loops, triple loops, sheet-like folds, helix-like folds, and combinations thereof. CLIPS templates are coupled to cysteine residues. The side-chains of multiple cysteines in the peptides are coupled to one or two CLIPS templates. For example, a 0.5 mM solution of the P2 CLIPS (2,6-bis(bromomethyl)pyridine) is dissolved in ammonium bicarbonate (20 mM, pH 7.8)/acetonitrile (1:3, v/v). This solution is added onto the peptide arrays. The CLIPS template binds to side-chains of two cysteines as present in the solid-phase bound peptides of the peptide-arrays (455 wells plate with 3-µL wells). The peptide arrays are gently shaken in the solution for 30 to 60 minutes while completely covered in solution.
# Finally, the peptide arrays are washed extensively with excess of H2O and sonicated in disrupt-buffer containing 1% SDS / 0.1 % 2,2′-(ethylenedioxy)diethanethiol in PBS (pH 7.2) at 70° C. for 30 minutes, followed by sonication in H2O for another 45 minutes.
# The binding of the sample (recombinant His-tagged CD38; 9 µg/mL and 20 µg/mL) to each of the synthesized peptides was tested in a pepscan-based ELISA. The peptide arrays were incubated with primary sample solution (overnight at 4° C.). […]
row,"Value (binding intensity of His-tagged CD38), BET conformational peptide array",Substance
1,695 mAU,271 (CKDDVLFYNIPGMKSTESYFIC) [compound 271]
2,524 mAU,272 (CDDVLFYNISPGKSTESYFIPC) [compound 272]
3,632 mAU,273 (CVLFYNISSMPGTESYFIPEVC) [compound 273]
4,897 mAU,274 (CKMVKLKREKPGRDQNFVILEC) [compound 274]
5,833 mAU,275 (CKLKREKNSRPGNFVILEFPVC) [compound 275]
6,817 mAU,276 (CLKREKNSRDPGFVILEFPVEC) [compound 276]
7,839 mAU,277 (CSKVESSRISPGSSIVVNITEC) [compound 277]
8,637 mAU,278 (CESSRISKVSPGVVNITELFSC) [compound 278]
9,461 mAU,279 (CPANFTIQKEPGIVSQTQDFTC) [compound 279]
10,417 mAU,280 (CQIVVSEMLSPGRISYDAQFEC) [compound 280]
11,414 mAU,281 (CIVVSEMLSQPGISYDAQFEVC) [compound 281]
12,635 mAU,282 (CVVSEMLSQPPGSYDAQFEVIC) [compound 282]
13,601 mAU,283 (CLSEVLRVKVPGPVDEVQISIC) [compound 283]
14,447 mAU,284 (CEVLRVKVIAPGDEVQISILSC) [compound 284]

# Same assay, conditions: mimic type LOOP7 (single loop, mP2 CLIPS); sample with the highest signal
row,"Value (binding intensity of His-tagged CD38), LOOP7 conformational peptide array",Substance
1,1186 mAU,291 (CNFVILEFC) [compound 291]
